Results: patent publication US20250214991A1 (Oncopia Therapeutics, Inc. d/b/a/ SK Life Science Labs, priority 2022, published 2025)

Assays:
IKZF1 = IKZF1 (Homo sapiens (Human), UniProt Q13422+Q96SW2); assay: In vitro IKZF1 HiBit Assay (HEK293T Flp-in-HiBiT-IKZF1 stable cell line); assay type: cell-based; conditions: HEK293T Flp-in-HiBiT-IKZF1 stable cell line, 6 hrs incubation; for DC50: read-out: IKZF1 HiBit DC50; for Dmax: HEK-293T, read-out: IKZF1 HiBit Dmax (%)
Procedure, shortened: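 Degradation was measured as loss of luminescence from the HiBiT-IKZF1 tag after 6 h compound treatment, with 0.1% final DMSO, in stable HEK293T Flp-in cells. Values were normalized to DMSO, giving the 50% degradation concentration and the maximal degradation range.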

CRBN/DDB1 = CRBN/DDB1 (Homo sapiens (Human), UniProt Q96SW2); assay: IC50 measurements for binding to CRBN/DDB1 (HTRF); conditions: His tagged CRBN+DDB, Cy5-labeled Thalidomide probe, one hour
Sequence of CRBN/DDB1 (Q96SW2 whole entry, species assumed): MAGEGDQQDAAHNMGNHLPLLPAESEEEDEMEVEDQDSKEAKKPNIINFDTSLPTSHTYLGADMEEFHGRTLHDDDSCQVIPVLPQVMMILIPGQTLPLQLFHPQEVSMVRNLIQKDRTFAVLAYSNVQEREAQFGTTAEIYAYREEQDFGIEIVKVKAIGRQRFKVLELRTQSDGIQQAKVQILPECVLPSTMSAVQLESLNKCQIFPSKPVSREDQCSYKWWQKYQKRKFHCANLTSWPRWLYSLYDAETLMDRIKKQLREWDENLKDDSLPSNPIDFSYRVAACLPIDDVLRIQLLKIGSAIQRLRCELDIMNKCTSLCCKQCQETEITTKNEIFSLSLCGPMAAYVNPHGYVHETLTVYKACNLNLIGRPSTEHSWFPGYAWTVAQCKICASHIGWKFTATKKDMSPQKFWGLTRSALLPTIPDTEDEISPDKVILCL
Sequence of CRBN/DDB1 (Q16531 whole entry partner, species assumed): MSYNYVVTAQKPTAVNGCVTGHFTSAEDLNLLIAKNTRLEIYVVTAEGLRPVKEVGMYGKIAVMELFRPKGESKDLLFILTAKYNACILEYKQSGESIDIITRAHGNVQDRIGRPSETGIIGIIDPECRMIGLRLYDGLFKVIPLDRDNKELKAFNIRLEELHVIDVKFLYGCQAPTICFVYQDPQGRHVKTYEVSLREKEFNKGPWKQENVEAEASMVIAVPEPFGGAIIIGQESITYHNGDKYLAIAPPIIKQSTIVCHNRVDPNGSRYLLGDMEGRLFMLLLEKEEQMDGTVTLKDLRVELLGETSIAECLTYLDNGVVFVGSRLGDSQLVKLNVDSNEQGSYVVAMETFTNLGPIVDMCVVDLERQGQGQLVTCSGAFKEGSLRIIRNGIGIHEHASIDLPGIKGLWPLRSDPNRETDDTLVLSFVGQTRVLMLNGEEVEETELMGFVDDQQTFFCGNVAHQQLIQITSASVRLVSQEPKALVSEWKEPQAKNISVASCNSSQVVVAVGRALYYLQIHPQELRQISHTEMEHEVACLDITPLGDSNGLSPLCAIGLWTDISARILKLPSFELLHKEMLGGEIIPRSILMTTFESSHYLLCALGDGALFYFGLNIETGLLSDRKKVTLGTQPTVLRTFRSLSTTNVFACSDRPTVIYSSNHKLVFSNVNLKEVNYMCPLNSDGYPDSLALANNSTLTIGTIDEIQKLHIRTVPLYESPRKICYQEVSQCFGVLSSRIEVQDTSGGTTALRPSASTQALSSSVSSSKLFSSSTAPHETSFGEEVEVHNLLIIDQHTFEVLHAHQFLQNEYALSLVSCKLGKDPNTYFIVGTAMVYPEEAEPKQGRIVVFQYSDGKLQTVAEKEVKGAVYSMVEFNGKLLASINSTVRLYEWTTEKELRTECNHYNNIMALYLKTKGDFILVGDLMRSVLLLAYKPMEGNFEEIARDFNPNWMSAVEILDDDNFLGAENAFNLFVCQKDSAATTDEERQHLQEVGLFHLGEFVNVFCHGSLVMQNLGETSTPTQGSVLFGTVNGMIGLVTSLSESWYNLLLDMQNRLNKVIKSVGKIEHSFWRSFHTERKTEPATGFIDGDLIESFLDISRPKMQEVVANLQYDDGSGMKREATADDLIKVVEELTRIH
Procedure, shortened: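 Serially diluted compounds compete with a Cy5-labeled thalidomide tracer (60 nM) for His-tagged CRBN-DDB1 (2 nM), detected via anti-6His Tb cryptate (0.4 nM); buffer HEPES pH 7.5 with TCEP, Brij-35, NaCl, BSA. One-hour room-temperature incubation, HTRF signal read, IC50 by four-parameter curve.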

IKZF2 = IKZF2 (Homo sapiens (Human), UniProt Q96SW2+Q9UKS7); assay: In vitro IKZF2 HiBit Assay (HEK293T Flp-in-HiBiT cells); assay type: cell-based; conditions: HEK293T Flp-in-HiBiT cells, 6 hrs incubation; for DC50: read-out: IKZF2 HiBit DC50; for Dmax: HEK-293T, read-out: IKZF2 HiBit Dmax (%)
Sequence of IKZF2 (Q9UKS7 whole entry): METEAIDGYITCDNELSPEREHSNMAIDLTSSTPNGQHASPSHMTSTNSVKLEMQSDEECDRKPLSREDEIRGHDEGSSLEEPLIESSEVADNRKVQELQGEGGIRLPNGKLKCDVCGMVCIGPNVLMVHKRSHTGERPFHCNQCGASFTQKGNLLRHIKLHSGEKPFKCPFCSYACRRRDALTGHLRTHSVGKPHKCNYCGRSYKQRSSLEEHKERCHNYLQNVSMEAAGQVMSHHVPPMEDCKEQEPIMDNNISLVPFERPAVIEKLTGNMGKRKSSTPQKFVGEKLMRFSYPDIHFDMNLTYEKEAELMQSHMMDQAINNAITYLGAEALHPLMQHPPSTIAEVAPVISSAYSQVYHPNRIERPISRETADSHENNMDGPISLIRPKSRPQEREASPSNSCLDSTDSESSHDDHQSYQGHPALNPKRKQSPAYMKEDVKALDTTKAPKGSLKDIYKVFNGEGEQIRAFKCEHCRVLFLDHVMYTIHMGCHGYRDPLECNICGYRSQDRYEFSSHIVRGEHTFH
Sequence of IKZF2 (Q96SW2 whole entry): as the sequence (Q96SW2 whole entry, species assumed) above
Sequence of IKZF2 (Q16531 2-1140 partner): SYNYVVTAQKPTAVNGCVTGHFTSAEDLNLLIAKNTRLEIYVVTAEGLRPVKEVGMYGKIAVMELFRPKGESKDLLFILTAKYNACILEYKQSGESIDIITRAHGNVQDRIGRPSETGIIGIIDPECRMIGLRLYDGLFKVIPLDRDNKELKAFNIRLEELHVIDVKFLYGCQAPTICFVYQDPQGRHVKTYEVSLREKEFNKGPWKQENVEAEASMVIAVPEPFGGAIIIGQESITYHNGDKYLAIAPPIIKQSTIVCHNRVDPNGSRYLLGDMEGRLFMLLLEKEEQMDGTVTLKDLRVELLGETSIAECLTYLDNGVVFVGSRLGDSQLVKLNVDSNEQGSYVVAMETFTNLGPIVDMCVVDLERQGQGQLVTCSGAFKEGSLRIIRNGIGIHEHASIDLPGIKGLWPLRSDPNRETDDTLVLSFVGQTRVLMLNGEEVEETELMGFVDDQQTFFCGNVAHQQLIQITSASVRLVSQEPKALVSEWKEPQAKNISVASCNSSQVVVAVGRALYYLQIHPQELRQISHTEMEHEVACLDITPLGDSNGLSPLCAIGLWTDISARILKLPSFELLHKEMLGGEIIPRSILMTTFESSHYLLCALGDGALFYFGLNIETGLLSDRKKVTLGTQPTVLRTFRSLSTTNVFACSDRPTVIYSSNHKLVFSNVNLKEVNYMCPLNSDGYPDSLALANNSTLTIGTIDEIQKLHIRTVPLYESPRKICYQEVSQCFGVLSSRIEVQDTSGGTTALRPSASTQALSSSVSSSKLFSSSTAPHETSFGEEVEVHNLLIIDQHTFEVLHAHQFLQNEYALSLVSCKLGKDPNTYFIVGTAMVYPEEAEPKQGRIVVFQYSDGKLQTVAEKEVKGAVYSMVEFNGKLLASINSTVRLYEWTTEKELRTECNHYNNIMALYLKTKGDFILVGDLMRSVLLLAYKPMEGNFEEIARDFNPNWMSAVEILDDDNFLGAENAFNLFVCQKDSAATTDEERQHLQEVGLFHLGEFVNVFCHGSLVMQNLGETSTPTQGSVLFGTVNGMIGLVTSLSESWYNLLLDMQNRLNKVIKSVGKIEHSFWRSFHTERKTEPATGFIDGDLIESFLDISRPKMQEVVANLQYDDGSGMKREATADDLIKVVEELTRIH
Procedure, shortened: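 Remaining tagged Helios was read as lytic HiBiT/LgBiT luminescence normalized to DMSO, yielding binned DC50 and Dmax values. Treatment ran 6 h, with compounds at 11 three-fold doses diluted from 1 mM and 0.1% final DMSO. The cells were HEK293T Flp-in with CRISPR knock-in of HiBiT at the IKZF2 N-terminus.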

Sequence of IKZF1 (Q13422 whole entry): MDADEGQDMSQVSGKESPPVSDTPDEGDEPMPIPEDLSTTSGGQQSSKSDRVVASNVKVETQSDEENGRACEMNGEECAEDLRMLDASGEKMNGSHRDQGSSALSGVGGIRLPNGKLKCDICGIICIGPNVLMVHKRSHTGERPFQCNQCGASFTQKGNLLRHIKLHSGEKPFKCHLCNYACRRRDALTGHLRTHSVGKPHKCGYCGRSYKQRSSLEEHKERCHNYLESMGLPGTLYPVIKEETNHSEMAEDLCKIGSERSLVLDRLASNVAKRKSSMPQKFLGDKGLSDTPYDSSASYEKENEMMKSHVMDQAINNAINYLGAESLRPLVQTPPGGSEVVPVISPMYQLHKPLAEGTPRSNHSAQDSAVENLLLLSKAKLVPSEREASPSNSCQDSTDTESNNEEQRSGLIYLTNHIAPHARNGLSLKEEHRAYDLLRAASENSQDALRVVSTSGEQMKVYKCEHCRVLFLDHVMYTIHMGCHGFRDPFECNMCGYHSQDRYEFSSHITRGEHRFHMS
Sequence of IKZF1 (Q96SW2 whole entry): as the sequence (Q96SW2 whole entry, species assumed) above
Sequence of IKZF1 (Q16531 2-1140 partner): as the sequence (Q16531 2-1140 partner) above

O=C1CCC(N2Cc3cc(-c4cc(CN5CCC6(CC5)COC6)c5ccn(C6COC6)c5n4)ccc3C2=O)C(=O)N1 (stereo not drawn) [Example 188, 3-(5-(4-((2-oxa-7-azaspiro[3.5]nonan-7-yl)methyl)-1-(oxetan-3-yl)-1H-pyrrolo[2,3-b]pyridin-6-yl)-1-oxoisoindolin-2-yl) piperidine-2,6-dione]
DC50 (IKZF1): > 10000 nM | Dmax (IKZF1): < 20% | IC50 (CRBN/DDB1): 500 to 1000 nM | DC50 (IKZF2): 1 to 10 nM | Dmax (IKZF2): 60 to 80%

O=C1CCC(N2Cc3cc(-c4cc(CN5CCCC5)c5[nH]nc(C6CCC6)c5n4)ccc3C2=O)C(=O)N1 (stereo not drawn) [Example 224, 3-(5-(3-cyclobutyl-7-(pyrrolidin-1-ylmethyl)-1H-pyrazolo[4,3-b]pyridin-5-yl)-1-oxoisoindolin-2-yl) piperidine-2,6-dione]
DC50 (IKZF1): 10 to 100 nM | Dmax (IKZF1): 40 to 60% | IC50 (CRBN/DDB1): 1000 to 5000 nM | DC50 (IKZF2): < 1 nM | Dmax (IKZF2): 60 to 80%

O=C1CCC(N2Cc3cc(-c4cc(CN5CC6COCC(C6)C5)c5ccn(C6COC6)c5n4)ccc3C2=O)C(=O)N1 (stereo not drawn) [Example 191, 3-(5-(4-((3-oxa-7-azabicyclo[3.3.1]nonan-7-yl)methyl)-1-(oxetan-3-yl)-1H-pyrrolo[2,3-b]pyridin-6-yl)-1-oxoisoindolin-2-yl) piperidine-2,6-dione]
DC50 (IKZF1): > 10000 nM | Dmax (IKZF1): < 20% | IC50 (CRBN/DDB1): 1000 to 5000 nM | DC50 (IKZF2): 1 to 10 nM | Dmax (IKZF2): 60 to 80%

CN(C)C(=O)C1CCN(Cc2cc(-c3ccc4c(c3)CN(C3CCC(=O)NC3=O)C4=O)nc3c2ccn3C)CC1 (stereo not drawn) [Example 92, 1-((6-(2-(2,6-dioxopiperidin-3-yl)-1-oxoisoindolin-5-yl)-1-methyl-1H-pyrrolo[2,3-b]pyridin-4-yl)methyl)-N,N-dimethylpiperidine-4-carboxamide]
DC50 (IKZF1): > 10000 nM | Dmax (IKZF1): < 20% | IC50 (CRBN/DDB1): < 100 nM | DC50 (IKZF2): 1 to 10 nM | Dmax (IKZF2): > 80%

Cc1nc2nc(-c3ccc4c(c3)CN(C3CCC(=O)NC3=O)C4=O)cc(CN3CCCC3)c2o1 (stereo not drawn) [Example 194, 3-(5-(2-methyl-7-(pyrrolidin-1-ylmethyl)oxazolo[4,5-b]pyridin-5-yl)-1-oxoisoindolin-2-yl) piperidine-2,6-dione]
DC50 (IKZF1): > 10000 nM | Dmax (IKZF1): < 20% | IC50 (CRBN/DDB1): 1000 to 5000 nM | DC50 (IKZF2): 1 to 10 nM | Dmax (IKZF2): > 80%

COCC1CCN(Cc2cc(-c3ccc4c(c3)CN(C3CCC(=O)NC3=O)C4=O)nc3c2ccn3C)C1 (stereo not drawn) [Example 109, 3-(5-(4-((3-(methoxymethyl)pyrrolidin-1-yl)methyl)-1-methyl-1H-pyrrolo[2,3-b]pyridin-6-yl)-1-oxoisoindolin-2-yl) piperidine-2,6-dione]
DC50 (IKZF1): 1 to 10 nM | Dmax (IKZF1): 20 to 40% | IC50 (CRBN/DDB1): 100 to 500 nM | DC50 (IKZF2): < 1 nM | Dmax (IKZF2): > 80%

O=C1CCC(N2Cc3cc(-c4cc(CN5CCCC5)c5ccn(C6CCOCC6)c5n4)ccc3C2=O)C(=O)N1 (stereo not drawn) [Example 171, 3-(1-oxo-5-(4-(pyrrolidin-1-ylmethyl)-1-(tetrahydro-2H-pyran-4-yl)-1H-pyrrolo[2,3-b]pyridin-6-yl)isoindolin-2-yl) piperidine-2,6-dione]
DC50 (IKZF1): > 10000 nM | Dmax (IKZF1): < 20% | IC50 (CRBN/DDB1): 100 to 500 nM | DC50 (IKZF2): 1 to 10 nM | Dmax (IKZF2): 60 to 80%

Cn1ccc2c(CN3Cc4ccccc4C3)cc(-c3ccc4c(c3)CN(C3CCC(=O)NC3=O)C4=O)nc21 (stereo not drawn) [Example 67, 3-(5-(4-(isoindolin-2-ylmethyl)-1-methyl-1H-pyrrolo[2,3-b]pyridin-6-yl)-1-oxoisoindolin-2-yl) piperidine-2,6-dione]
DC50 (IKZF1): > 10000 nM | Dmax (IKZF1): 20 to 40% | IC50 (CRBN/DDB1): 500 to 1000 nM | DC50 (IKZF2): 1 to 10 nM | Dmax (IKZF2): 60 to 80%

O=C1CCC(N2Cc3cc(-c4cc(CN5CCC(F)C5)c5ccn(C6CC6)c5n4)ccc3C2=O)C(=O)N1 (stereo not drawn) [Example 141, 3-(5-(1-cyclopropyl-4-((3-fluoropyrrolidin-1-yl)methyl)-1H-pyrrolo[2,3-b]pyridin-6-yl)-1-oxoisoindolin-2-yl) piperidine-2,6-dione]
DC50 (IKZF1): > 10000 nM | Dmax (IKZF1): < 20% | IC50 (CRBN/DDB1): 1000 to 5000 nM | DC50 (IKZF2): 1 to 10 nM | Dmax (IKZF2): > 80%
